Laboratory results: patent US20230148599A1, “FUNGICIDAL MIXTURES CONTAINING PYRAZOLE DERIVATIVES” (FMC Corporation, priority 2020, published 2023)

How the values were obtained:
Type in all cases: in vivo
Details in all cases: 50 ppm, 100 = 100% disease control, 0 = no control
[1] = test system: Septoria tritici; experiment: Test A: wheat leaf blotch, preventive spray on wheat seedlings
How it was run: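 Preventive test: one day after spraying seedlings to run-off (concentrations in ppm; acetone/water, 250 ppm PEG400), Septoria tritici spores applied. Scored after 48 h humid incubation at 24 °C plus 17 days at 20 °C, as percent disease control versus untreated controls (100 = full control).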

[2] = test system: Puccinia recondita f. sp. tritici; experiment: Test B: wheat leaf rust, preventive spray on wheat seedlings
How it was run: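 Preventive test: compound in acetone/water 50/50 with 250 ppm PEG400 was sprayed onto wheat seedlings one day before inoculation with leaf rust spores. After 24 h in saturated air and 7 days in a growth chamber, both at 20 °C, disease control was scored from 0 to 100 against controls.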

[3] = test system: Blumeria graminis f. sp. tritici; experiment: Test C: wheat powdery mildew, preventive spray on wheat seedlings
How it was run: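 Preventive test: inoculation with spore dust came one day after spraying seedlings to run-off with ppm suspensions in acetone/water (50/50) plus 250 ppm PEG400 surfactant. Visual ratings after 8 days' incubation at 20° C give percent disease control relative to controls.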

[4] = test system: Phakopsora pachyrhizi; experiment: Test D: Asian soybean rust, preventive spray on soybean seedlings
How it was run: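 Compounds in acetone/water (50/50) with 250 ppm PEG400, dosed in ppm, sprayed to run-off on soybean seedlings; inoculated with P. pachyrhizi spores next day. Held 24 h at 22 °C in saturated air, then 8 days at 22 °C; visual rating of disease control, 0–100, relative to untreated controls.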

[5] = test system: Botrytis cinerea; experiment: Test E: tomato Botrytis, preventive spray on tomato seedlings
How it was run: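 Preventive test: seedlings sprayed to run-off with compound in acetone/water (50/50) plus 250 ppm PEG400, inoculated one day later with B. cinerea spores. Held 48 h saturated at 20° C, then 3 days at 24° C; disease control scored visually from 0 to 100 versus controls.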

[6] = test system: Alternaria solani; experiment: Test F: tomato early blight, preventive spray on tomato seedlings
How it was run: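 Preventive test: one day after the compound spray, seedlings were inoculated with A. solani, incubated saturated at 27 °C for 48 h, then kept at 20 °C for 3 days. Test suspensions contained acetone/water 50/50 with 250 ppm PEG400 surfactant. Visual ratings run from 0 (no control) to 100 (full control).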

## Cc1nn(C)c(Nc2c(F)cc(Cl)cc2[N+](=O)[O-])c1-c1ccc(F)cc1F [compound 102]
[1]
  Test A disease control rating: 100%
[2]
  Test B disease control rating: 100%
[3]
  Test C disease control rating: 100%
[4]
  Test D disease control rating: 48%
[5]
  Test E disease control rating: 99%
[6]
  Test F disease control rating: 99%

## CCc1nn(C)c(Nc2ccc(OC)cc2[N+](=O)[O-])c1-c1ccc(F)cc1Cl [compound 173]
[1]
  Test A disease control rating: 100%
[2]
  Test B disease control rating: 100%
[3]
  Test C disease control rating: 98%
[4]
  Test D disease control rating: 0%
[5]
  Test E disease control rating: 98%
[6]
  Test F disease control rating: 93%

## Cc1nn(C)c(Nc2c(Cl)cccc2[N+](=O)[O-])c1-c1ccc(F)cc1Br [compound 41]
[1]
  Test A disease control rating: 100%
[2]
  Test B disease control rating: 100%
[3]
  Test C disease control rating: 94%
[4]
  Test D disease control rating: 77%
[5]
  Test E disease control rating: 77%
[6]
  Test F disease control rating: 0%

## Cc1nn(C)c(Nc2ccccc2[N+](=O)[O-])c1-c1c(F)cc(F)cc1F [compound 149]
[1]
  Test A disease control rating: 100%
[2]
  Test B disease control rating: 80%
[3]
  Test C disease control rating: 97%
[4]
  Test D disease control rating: 0%
[5]
  Test E disease control rating: 99%
[6]
  Test F disease control rating: 96%

## Cc1nn(C)c(Nc2ccc(Br)cc2[N+](=O)[O-])c1-c1ccc(F)cc1Br [compound 21]
[1]
  Test A disease control rating: 100%
[2]
  Test B disease control rating: 86%
[3]
  Test C disease control rating: 84%
[4]
  Test D disease control rating: 0%
[5]
  Test E disease control rating: 95%
[6]
  Test F disease control rating: 17%

## Cc1nn(C)c(Nc2ccc(Cl)cc2[N+](=O)[O-])c1-c1ccc(F)cc1F [compound 78]
[1]
  Test A disease control rating: 100%
[2]
  Test B disease control rating: 89%
[3]
  Test C disease control rating: 95%
[4]
  Test D disease control rating: 0%
[5]
  Test E disease control rating: 68%
[6]
  Test F disease control rating: 0%

## Cc1nn(C)c(Nc2c(F)cc(Cl)cc2[N+](=O)[O-])c1-c1ccc(F)cc1Br [compound 131]
[1]
  Test A disease control rating: 100%
[2]
  Test B disease control rating: 100%
[3]
  Test C disease control rating: 99%
[4]
  Test D disease control rating: 80%
[5]
  Test E disease control rating: 99%
[6]
  Test F disease control rating: 100%

## Cc1nn(C)c(Nc2ccc(F)cc2[N+](=O)[O-])c1-c1ccc(F)cc1Br [compound 20]
[1]
  Test A disease control rating: 100%
[2]
  Test B disease control rating: 89%
[3]
  Test C disease control rating: 92%
[4]
  Test D disease control rating: 0%
[5]
  Test E disease control rating: 99%
[6]
  Test F disease control rating: 26%

## Cc1nn(C)c(Nc2c(F)cc(F)cc2[N+](=O)[O-])c1-c1c(F)cccc1F [compound 75]
[1]
  Test A disease control rating: 100%
[2]
  Test B disease control rating: 99%
[3]
  Test C disease control rating: 90%
[4]
  Test D disease control rating: 0%
[5]
  Test E disease control rating: 57%
[6]
  Test F disease control rating: 98%

## COc1cc(F)c(-c2c(C)nn(C)c2Nc2ccc(OC)cc2[N+](=O)[O-])c(F)c1 [compound 161]
[1]
  Test A disease control rating: 100%
[2]
  Test B disease control rating: 100%
[3]
  Test C disease control rating: 100%
[4]
  Test D disease control rating: 0%
[5]
  Test E disease control rating: 100%
[6]
  Test F disease control rating: 99%

## COc1cc(F)c(Nc2c(-c3ccc(F)cc3Cl)c(C)nn2C)c([N+](=O)[O-])c1 [compound 85]
[1]
  Test A disease control rating: 100%
[2]
  Test B disease control rating: 100%
[3]
  Test C disease control rating: 97%
[4]
  Test D disease control rating: 96%
[5]
  Test E disease control rating: 94%
[6]
  Test F disease control rating: 98%

## COc1ccc(-c2c(C)nn(C)c2Nc2c(F)cccc2[N+](=O)[O-])c(Cl)c1 [compound 27]
[1]
  Test A disease control rating: 100%
[2]
  Test B disease control rating: 100%
[3]
  Test C disease control rating: 91%
[4]
  Test D disease control rating: 87%
[5]
  Test E disease control rating: 100%
[6]
  Test F disease control rating: 99%

## Cc1nn(C)c(Nc2c(Cl)cc(Br)cc2[N+](=O)[O-])c1-c1ccc(F)cc1F [compound 55]
[1]
  Test A disease control rating: 100%
[2]
  Test B disease control rating: 99%
[3]
  Test C disease control rating: 90%
[4]
  Test D disease control rating: 0%
[5]
  Test E disease control rating: 34%
[6]
  Test F disease control rating: 0%

## COc1cc(Cl)c(Nc2c(-c3ccc(F)cc3Cl)c(C)nn2C)c([N+](=O)[O-])c1 [compound 80]
[1]
  Test A disease control rating: 100%
[2]
  Test B disease control rating: 100%
[3]
  Test C disease control rating: 97%
[4]
  Test D disease control rating: 50%
[5]
  Test E disease control rating: 95%
[6]
  Test F disease control rating: 98%

## Cc1nn(C)c(Nc2c(F)cccc2[N+](=O)[O-])c1-c1c(F)cc(Cl)cc1F [compound 151]
[1]
  Test A disease control rating: 100%
[2]
  Test B disease control rating: 100%
[3]
  Test C disease control rating: 99%
[4]
  Test D disease control rating: 0%
[5]
  Test E disease control rating: 99%
[6]
  Test F disease control rating: 99%

## COc1cc(F)c(Nc2c(-c3ccc(C#N)cc3Cl)c(C)nn2C)c([N+](=O)[O-])c1 [compound 166]
[1]
  Test A disease control rating: 99%
[2]
  Test B disease control rating: 100%
[3]
  Test C disease control rating: 98%
[4]
  Test D disease control rating: 98%
[5]
  Test E disease control rating: 99%
[6]
  Test F disease control rating: 100%

## CCn1nc(C)c(-c2ccc(F)cc2Cl)c1Nc1c(F)cccc1[N+](=O)[O-] [compound 71]
[1]
  Test A disease control rating: 100%
[2]
  Test B disease control rating: 100%
[3]
  Test C disease control rating: 99%
[4]
  Test D disease control rating: 82%
[5]
  Test E disease control rating: 99%
[6]
  Test F disease control rating: 98%

## Cc1nn(C)c(Nc2ccccc2[N+](=O)[O-])c1-c1c(F)cc(Cl)cc1F [compound 168]
[1]
  Test A disease control rating: 100%
[2]
  Test B disease control rating: 74%
[3]
  Test C disease control rating: 97%
[4]
  Test D disease control rating: 0%
[5]
  Test E disease control rating: 99%
[6]
  Test F disease control rating: 40%

## Cc1nn(C)c(Nc2c(F)cccc2[N+](=O)[O-])c1-c1c(F)cccc1F [compound 63]
[1]
  Test A disease control rating: 100%
[2]
  Test B disease control rating: 99%
[3]
  Test C disease control rating: 86%
[4]
  Test D disease control rating: 0%
[5]
  Test E disease control rating: 100%
[6]
  Test F disease control rating: 96%

## Cc1nn(C)c(Nc2ccc(Cl)cc2[N+](=O)[O-])c1-c1c(F)cccc1Cl [compound 22]
[1]
  Test A disease control rating: 100%
[2]
  Test B disease control rating: 93%
[3]
  Test C disease control rating: 97%
[4]
  Test D disease control rating: 0%
[5]
  Test E disease control rating: 99%
[6]
  Test F disease control rating: 64%

## COc1ccc(-c2c(C)nn(C)c2Nc2ccccc2[N+](=O)[O-])c(Cl)c1 [compound 140]
[1]
  Test A disease control rating: 99%
[2]
  Test B disease control rating: 86%
[3]
  Test C disease control rating: 31%
[4]
  Test D disease control rating: 0%
[5]
  Test E disease control rating: 100%
[6]
  Test F disease control rating: 93%

## Cc1nn(C)c(Nc2c(F)cccc2[N+](=O)[O-])c1-c1c(F)cc(C#N)cc1F [compound 114]
[1]
  Test A disease control rating: 100%
[2]
  Test B disease control rating: 98%
[3]
  Test C disease control rating: 99%
[4]
  Test D disease control rating: 73%
[5]
  Test E disease control rating: 100%
[6]
  Test F disease control rating: 99%

## COc1ccc(-c2c(C)nn(C)c2Nc2ccc(Cl)cc2[N+](=O)[O-])c(Cl)c1 [compound 74]
[1]
  Test A disease control rating: 99%
[2]
  Test B disease control rating: 86%
[3]
  Test C disease control rating: 81%
[4]
  Test D disease control rating: 74%
[5]
  Test E disease control rating: 99%
[6]
  Test F disease control rating: 85%

## Cc1nn(C)c(Nc2c(F)cc(F)cc2[N+](=O)[O-])c1-c1c(F)cc(F)cc1Cl [compound 199]
[1]
  Test A disease control rating: 99%
[2]
  Test B disease control rating: 100%
[3]
  Test C disease control rating: 100%
[4]
  Test D disease control rating: 100%
[5]
  Test E disease control rating: 99%
[6]
  Test F disease control rating: 100%

## Cc1nn(C)c(Nc2ccccc2[N+](=O)[O-])c1-c1ccc(F)cc1F [compound 190]
[1]
  Test A disease control rating: 100%
[2]
  Test B disease control rating: 32%
[3]
  Test C disease control rating: 91%
[4]
  Test D disease control rating: 0%
[5]
  Test E disease control rating: 100%
[6]
  Test F disease control rating: 9%

## COc1cc(F)c(-c2c(C)nn(C)c2Nc2c(Cl)cc(Cl)cc2[N+](=O)[O-])c(F)c1 [compound 82]
[1]
  Test A disease control rating: 100%
[2]
  Test B disease control rating: 100%
[3]
  Test C disease control rating: 58%
[4]
  Test D disease control rating: 59%
[5]
  Test E disease control rating: 96%
[6]
  Test F disease control rating: 97%
